Experimental data published in patent US20260015325A1, “ALKOXY HETEROARYL- CARBOXAMIDE OR THIOAMIDE COMPOUNDS” (SYNGENTA CROP PROTECTION AG, priority 2022, published 2026).
Read-outs that look alike come from different tables or passages of the source.

How the values were obtained:
Assay type in all cases: in vivo
[1] = tested on: Euschistus heros (Neotropical Brown Stink Bug); assay: Euschistus heros (Neotropical Brown Stink Bug), soybean leaves; conditions: 120 h, read-out: effect in at least one of the two categories (mortality or growth inhibition); for percent effect (mortality or growth inhibition) at 200 ppm: application rate of 200 ppm, N2 nymphs on sprayed soybean leaves, 5 days after infestation
Description: Example B4: Euschistus heros (Neotropical Brown Stink Bug)
Soybean leaves on agar in 24-well microtiter plates were sprayed with aqueous test solutions prepared from 10′000 ppm DMSO stock solutions. After drying the leaves were infested with N2 nymphs. The samples were assessed for mortality and growth inhibition in comparison to untreated samples 5 days after infestation.

[2] = tested on: Bemisia tabaci (Cotton White Fly); assay: Bemisia tabaci (Cotton White Fly): feeding/contact activity, cotton leaf discs; conditions: foliar, 144 h
Description: Example B1: Bemisia tabaci (Cotton White Fly): Feeding/Contact Activity
Cotton leaf discs were placed on agar in 24-well microtiter plates and sprayed with aqueous test solutions prepared from 10′000 ppm DMSO stock solutions. After drying the leaf discs were infested with adult white flies. The samples were checked for mortality 6 days after incubation.

[3] = tested on: Tetranychus urticae (Two-Spotted Spider Mite); assay: whole plant or invertebrate; conditions: foliar, 192 h
Description: Example B11: Tetranychus urticae (Two-Spotted Spider Mite): Feeding/Contact Activity
Bean leaf discs on agar in 24-well microtiter plates were sprayed with aqueous test solutions prepared from 10′000 ppm DMSO stock solutions. After drying the leaf discs were infested with a mite population of mixed ages. The samples were assessed for mortality on mixed population (mobile stages) 8 days after infestation.

[4] = tested on: Myzus persicae (Green Peach Aphid); assay: Myzus persicae (Green Peach Aphid): feeding/contact activity, sunflower leaf discs; conditions: foliar, 144 h
Description: Example B6: Myzus persicae (Green Peach Aphid): Feeding/Contact Activity
Sunflower leaf discs were placed onto agar in a 24-well microtiter plate and sprayed with aqueous test solutions prepared from 10′000 ppm DMSO stock solutions. After drying, the leaf discs were infested with an aphid population of mixed ages. The samples were assessed for mortality 6 days after infestation.

[5] = tested on: Myzus persicae (Green Peach Aphid); assay: Myzus persicae (Green Peach Aphid): intrinsic activity, sucrose solution; conditions: 120 h
Description: Example B8: Myzus persicae (Green Peach Aphid). Intrinsic Activity
Test compounds prepared from 10′000 ppm DMSO stock solutions were applied by pipette into 24-well microtiter plates and mixed with sucrose solution. The plates were closed with a stretched Parafilm. A plastic stencil with 24 holes was placed onto the plate and infested pea seedlings were placed directly on the Parafilm. The infested plate was closed with a gel blotting paper and another plastic stencil and then turned upside down. The samples were assessed for mortality 5 days after infestation.

[6] = tested on: Frankliniella occidentalis (Western Flower Thrips); assay: Frankliniella occidentalis (Western Flower Thrips): feeding/contact activity, sunflower leaf discs; conditions: foliar, 168 h, application rate of 200 ppm, mixed ages on sprayed sunflower leaf discs, 7 days after infestation
Description: Example B5: Frankliniella occidentalis (Western Flower Thrips): Feeding/Contact Activity
Sunflower leaf discs were placed on agar in 24-well microtiter plates and sprayed with aqueous test solutions prepared from […] stock solutions. After drying the leaf discs were infested with a Frankliniella population of mixed ages. The samples were assessed for mortality 7 days after infestation.

[7] = tested on: Myzus persicae (Green Peach Aphid); assay: Myzus persicae (Green Peach Aphid): systemic activity, pea seedlings; conditions: 144 h
Description: Example B7: Myzus persicae (Green Peach Aphid). Systemic Activity
Roots of pea seedlings infested with an aphid population of mixed ages were placed directly into aqueous test solutions prepared from 10′000 DMSO stock solutions. The samples were assessed for mortality 6 days after placing seedlings into test solutions.

[8] = application rate of 200 ppm, adult white flies on sprayed cotton leaf discs, 6 days after incubation, read-out: mortality
[9] = application rate of 200 ppm, mixed population (mobile stages) on sprayed bean leaf discs, 8 days after infestation, read-out: mortality
[10] = application rate of 200 ppm, mixed ages on sprayed sunflower leaf discs, 6 days after infestation, read-out: mortality
[11] = test rate of 12 ppm, intrinsic, mixed with sucrose solution under Parafilm, 5 days after infestation, read-out: mortality
[12] = test rate of 24 ppm, systemic, roots of infested pea seedlings in test solution, 6 days, read-out: mortality

COCN([C@@H](C)COc1cnc(Cl)c(C(=O)N(C(C)=O)C2CC2)c1)S(=O)(=O)C(F)(F)F [Compound P-12, N-acetyl-2-chloro-N-cyclopropyl-5-[(2S)-2-[methoxymethyl(trifluoromethylsulfonyl)amino]propoxy]pyridine-3-carboxamide]
≥ 80%: percent effect (mortality or growth inhibition) at 200 ppm [1] | mortality at 200 ppm [2, 8] | mortality at 200 ppm [3, 9] | mortality at 200 ppm [4, 10] | mortality at 12 ppm [5, 11]

CC(C)C(=O)OCN([C@@H](C)COc1cnc(Cl)c(C(=O)NC2(C#N)CC2)c1)S(=O)(=O)C(F)(F)F [Compound P-9, [[(1S)-2-[[6-chloro-5-[(1-cyanocyclopropyl)carbamoyl]-3-pyridyl]oxy]-1-methyl-ethyl]-(trifluoromethylsulfonyl)amino]methyl 2-methylpropanoate]
≥ 80%: mortality at 200 ppm [2, 8] | mortality at 200 ppm [6] | mortality at 200 ppm [4, 10] | mortality at 12 ppm [5, 11]

C[C@@H](COc1cnc(Cl)c(C(=O)NC2(C#N)CC2)c1)N(CC#N)S(=O)(=O)C(F)(F)F [Compound P-8, 2-chloro-N-(1-cyanocyclopropyl)-5-[(2S)-2-[cyanomethyl(trifluoromethylsulfonyl)amino]propoxy]pyridine-3-carboxamide]
≥ 80%: percent effect (mortality or growth inhibition) at 200 ppm [1] | mortality at 200 ppm [2, 8] | mortality at 200 ppm [3, 9] | mortality at 200 ppm [4, 10] | mortality at 12 ppm [5, 11] | mortality at 24 ppm [7, 12]

C[C@@H](COc1cnc(Cl)c(C(=O)NC2CC2)c1)N(CC#N)S(=O)(=O)C(F)(F)F [Compound P-15, 2-chloro-5-[(2S)-2-[cyanomethyl (trifluoromethylsulfonyl)amino]propoxy]-N-cyclopropyl-pyridine-3-carboxamide]
≥ 80%: percent effect (mortality or growth inhibition) at 200 ppm [1] | mortality at 200 ppm [2, 8] | mortality at 200 ppm [3, 9] | mortality at 200 ppm [4, 10] | mortality at 12 ppm [5, 11] | mortality at 24 ppm [7, 12]

COC(=O)N([C@@H](C)COc1cnc(Cl)c(C(=O)NC2CC2)c1)S(=O)(=O)C(F)(F)F [Compound P-14, methyl N-[(1S)-2-[[6-chloro-5-(cyclopropylcarbamoyl)-3-pyridyl]oxy]-1-methyl-ethyl]-N-(trifluoromethylsulfonyl)carbamate]
≥ 80%: percent control (mortality or growth inhibition) at 200 ppm [1] | mortality at 200 ppm [2] | mortality at 200 ppm [3] | mortality at 200 ppm [4] | mortality at 12 ppm [5] | mortality at 24 ppm [7]

C[C@@H](COc1cnc(Cl)c(C(=O)NC2(C#N)CCC2)c1)NS(=O)(=O)C(F)(F)F [Compound P-48, 2-chloro-N-(1-cyanocyclobutyl)-5-[(2S)-2-(trifluoromethylsulfonylamino)propoxy]pyridine-3-carboxamide]
≥ 80%: mortality at 200 ppm [3, 9] | mortality at 200 ppm [6] | mortality at 200 ppm [4, 10] | mortality at 12 ppm [5, 11] | mortality at 24 ppm [7, 12]

C[C@@H](COc1cnc(Cl)c(C(=O)N(C)C2(C#N)CC2)c1)NS(=O)(=O)C(F)(F)F [Compound P-47, 2-chloro-N-(1-cyanocyclopropyl)-N-methyl-5-[(2S)-2-(trifluoromethylsulfonylamino)propoxy]pyridine-3-carboxamide]
≥ 80%: mortality at 200 ppm [2, 8] | mortality at 200 ppm [6] | mortality at 200 ppm [4, 10] | mortality at 12 ppm [5, 11]

CCNC(=O)c1cc(OC[C@H](C)NS(=O)(=O)C(F)(F)F)cnc1Cl [Compound P-50, 2-chloro-N-ethyl-5-[(2S)-2-(trifluoromethylsulfonylamino)propoxy]pyridine-3-carboxamide]
≥ 80%: percent effect (mortality or growth inhibition) at 200 ppm [1] | mortality at 200 ppm [4, 10] | mortality at 12 ppm [5, 11]

C[C@@H](COc1cnc(Cl)c(C(=O)NC2CC2)c1)N(C)S(=O)(=O)C(F)(F)F [Compound P-16, 2-chloro-N-cyclopropyl-5-[(2S)-2-[methyl(trifluoromethylsulfonyl)amino]propoxy]pyridine-3-carboxamide]
≥ 80%: percent effect (mortality or growth inhibition) at 200 ppm [1] | mortality at 200 ppm [3, 9] | mortality at 200 ppm [4, 10] | mortality at 12 ppm [5, 11] | mortality at 24 ppm [7, 12]

CC(=O)N([C@@H](C)COc1cnc(Cl)c(C(=O)NC2CC2)c1)S(=O)(=O)C(F)(F)F [Compound P-43, 5-[(2S)-2-[acetyl(trifluoromethylsulfonyl)amino]propoxy]-2-chloro-N-cyclopropyl-pyridine-3-carboxamide]
≥ 80%: percent effect (mortality or growth inhibition) at 200 ppm [1] | mortality at 200 ppm [2, 8] | mortality at 200 ppm [3, 9] | mortality at 200 ppm [6] | mortality at 200 ppm [4, 10] | mortality at 12 ppm [5, 11] | mortality at 24 ppm [7, 12]

Cc1ncc(OC[C@H](C)NS(=O)(=O)C(F)(F)F)cc1C(=O)NC1CC1 [Compound P-62, N-cyclopropyl-2-methyl-5-[(2S)-2-(trifluoromethylsulfonylamino)propoxy]pyridine-3-carboxamide]
≥ 80%: mortality at 200 ppm [6]

Cc1ncc(OC[C@H](C)NS(=O)(=O)C(F)(F)F)cc1C(=O)NC1CCN(c2ccc(F)cc2)C1=O (stereo partly drawn) [Compound P-35, N-[1-(4-fluorophenyl)-2-oxo-pyrrolidin-3-yl]-2-methyl-5-[(2S)-2-(trifluoromethylsulfonylamino)propoxy]pyridine-3-carboxamide]
≥ 80%: mortality at 200 ppm [6]

C[C@@H](COc1cnc(Cl)c(C(=O)NC2CC2)c1)N(C(=O)OC(C)(C)C)S(=O)(=O)C(F)(F)F [Compound P-42, tert-butyl N-[(1S)-2-[[6-chloro-5-(cyclopropylcarbamoyl)-3-pyridyl]oxy]-1-methyl-ethyl]-N-(trifluoromethylsulfonyl)carbamate]
≥ 80%: percent effect (mortality or growth inhibition) at 200 ppm [1] | mortality at 200 ppm [3, 9] | mortality at 200 ppm [6] | mortality at 200 ppm [4, 10] | mortality at 12 ppm [5, 11]

C[C@@H](COc1cnc(Cl)c(C(=O)NCC(F)(F)F)c1)NS(=O)(=O)C(F)(F)F [Compound P-3, 2-chloro-N-(2,2,2-trifluoroethyl)-5-[(2S)-2-(trifluoromethylsulfonylamino)propoxy]pyridine-3-carboxamide]
≥ 80%: percent effect (mortality or growth inhibition) at 200 ppm [1] | mortality at 200 ppm [2, 8] | mortality at 200 ppm [3, 9] | mortality at 200 ppm [6] | mortality at 200 ppm [4, 10] | mortality at 12 ppm [5, 11]

C[C@@H](COc1cnc(Cl)c(C(=O)N(C)C2CC2)c1)NS(=O)(=O)C(F)(F)F [Compound P-58, 2-chloro-N-cyclopropyl-N-methyl-5-[(2S)-2-(trifluoromethylsulfonylamino)propoxy]pyridine-3-carboxamide]
≥ 80%: percent effect (mortality or growth inhibition) at 200 ppm [1] | mortality at 200 ppm [2, 8] | mortality at 200 ppm [4, 10] | mortality at 12 ppm [5, 11] | mortality at 24 ppm [7, 12]

C[C@@H](COc1cnc(Cl)c(C(=O)NC2(C#N)CC2)c1)N(C(=O)OC(C)(C)C)S(=O)(=O)C(F)(F)F [Compound P-6, tert-butyl N-[(1S)-2-[[6-chloro-5-[(1-cyanocyclopropyl)carbamoyl]-3-pyridyl]oxy]-1-methyl-ethyl]-N-(trifluoromethylsulfonyl)carbamate]
≥ 80%: percent effect (mortality or growth inhibition) at 200 ppm [1] | mortality at 200 ppm [2, 8] | mortality at 200 ppm [3, 9] | mortality at 200 ppm [6] | mortality at 200 ppm [4, 10] | mortality at 12 ppm [5, 11] | mortality at 24 ppm [7, 12]

Cc1ncc(OC[C@H](C)NS(=O)(=O)C(F)(F)F)cc1C(=O)NC1CON(CC(F)(F)F)C1=O (stereo partly drawn) [Compound P-30, 2-methyl-N-[3-oxo-2-(2,2,2-trifluoroethyl)isoxazolidin-4-yl]-5-[(2S)-2-(trifluoromethylsulfonylamino)propoxy]pyridine-3-carboxamide]
≥ 80%: mortality at 200 ppm [6]
